Laboratory results as given in PubChem BioAssay AID248 (DTP/NCI, 2004).
Several values for one entry are separate records, joined by “and”; a condition that tells them apart may be missing. Equal entries are not always repeated. Toxic doses and inconclusive results are not listed. Rule as the data show it: active = T/C of 150% or more; inactive = T/C below 125%.

Test system: L1210 leukemia ip in BDF1 mice, survival T/C
Assay: NCI In Vivo Anticancer Drug Screen. Data for tumor model L1210 Leukemia (intraperitoneal) in B6D2F1 (BDF1) mice
Conditions: endpoint: mean survival time, higher = longer survival
Summary of the method: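 Survival endpoint. Drug-treated group vs vehicle group, expressed as T divided by C. Tumor passaged by transplantation.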

[1] = dose: 50.0 mg/kg/injection, schedule: Q01DX001 (ip), vehicle: carboxymethylcellulose (CMC)
[2] = dose: 100.0 mg/kg/injection, schedule: Q01DX001 (ip), vehicle: carboxymethylcellulose (CMC)
[3] = dose: 200.0 mg/kg/injection, schedule: Q01DX001 (ip), vehicle: carboxymethylcellulose (CMC)
[4] = dose: 400.0 mg/kg/injection, schedule: Q01DX001 (ip), vehicle: carboxymethylcellulose (CMC)
[5] = dose: 50.0 mg/kg/injection, schedule: Q04DX003 (ip), vehicle: saline
[6] = dose: 100.0 mg/kg/injection, schedule: Q01DX001 (ip), vehicle: saline
[7] = dose: 100.0 mg/kg/injection, schedule: Q04DX003 (ip), vehicle: saline
[8] = dose: 200.0 mg/kg/injection, schedule: Q01DX001 (ip), vehicle: saline
[9] = dose: 400.0 mg/kg/injection, schedule: Q01DX001 (ip), vehicle: saline
[10] = dose: 200.0 mg/kg/injection, schedule: Q04DX003 (ip), vehicle: saline
[11] = dose: 400.0 mg/kg/injection, schedule: Q04DX003 (ip), vehicle: saline

Measured: T/C

COC1CC(O[C@H]2CC[C@@]3(C)[C@H](CC[C@@H]4[C@@H]3CC[C@]3(C)[C@@H](C5=CC(=O)OC5)[C@@H](OC(C)=O)C[C@]43O)C2)OC(C)C1O (stereo not given in full)
inactive: dose: 5.0 mg/kg/injection, schedule: Q01DX001 (ip), vehicle: saline 94 % of control | dose: 10.0 mg/kg/injection, schedule: Q01DX001 (ip), vehicle: saline 108 % of control | dose: 20.0 mg/kg/injection, schedule: Q01DX001 (ip), vehicle: saline 100 % of control | dose: 40.0 mg/kg/injection, schedule: Q01DX001 (ip), vehicle: saline 103 % of control | [1] 98 % of control | dose: 80.0 mg/kg/injection, schedule: Q01DX001 (ip), vehicle: saline 114 % of control | [2] 104 % of control

Cc1ccc(NC(=O)Oc2ccc(C(C)(C)C)cc2Br)cc1NC(=O)Oc1ccc(C(C)(C)C)cc1Br
inactive: dose: 100.0 mg/kg/injection, schedule: Q01DX009 (ip), vehicle: other 87 % of control | dose: 200.0 mg/kg/injection, schedule: Q01DX009 (ip), vehicle: other 100 % of control | dose: 400.0 mg/kg/injection, schedule: Q01DX009 (ip), vehicle: other 98 % of control

Cc1ccc(NC(=O)N(C)CCC#N)cc1
inactive: dose: 100.0 mg/kg/injection, schedule: Q04DX002 (ip), vehicle: saline with Tween-80 97 % of control | dose: 200.0 mg/kg/injection, schedule: Q04DX002 (ip), vehicle: saline with Tween-80 94 % of control | dose: 400.0 mg/kg/injection, schedule: Q04DX002 (ip), vehicle: saline with Tween-80 87 % of control

CCC(=O)O[C@H]1CC[C@H]2[C@@H]3[C@@H](C)CC4=CC(=O)CC[C@]4(C)[C@H]3CC[C@]12C
inactive: dose: 100.0 mg/kg/injection, schedule: Q01DX009 (ip), vehicle: saline with Tween-80 93 % of control | dose: 100.0 mg/kg/injection, schedule: Q04DX003 (ip), vehicle: saline with Tween-80 90 % of control | dose: 200.0 mg/kg/injection, schedule: Q04DX003 (ip), vehicle: saline with Tween-80 90 % of control | dose: 400.0 mg/kg/injection, schedule: Q01DX009 (ip), vehicle: saline with Tween-80 91 % of control | dose: 400.0 mg/kg/injection, schedule: Q04DX003 (ip), vehicle: saline with Tween-80 87 % of control

O=[N+]([O-])c1ccccc1/C=N/Nc1nnc(N/N=C/c2ccccc2[N+](=O)[O-])c2ccccc12
inactive: [1] 104 % of control | [2] 93 % of control | [3] 98 % of control | [4] 98 % of control

OC(CNc1ccc(Cl)cc1)CN1CCCCC1 (stereo not given)
inactive: [5] 91 % of control | [6] 100 % of control | [7] 98 % of control | [8] 90 % of control

O=c1ssc(=Nc2ccccc2)n1-c1ccccc1
inactive: dose: 100.0 mg/kg/injection, schedule: Q04DX003 (ip), vehicle: gum acacia 103 % of control | dose: 200.0 mg/kg/injection, schedule: Q04DX003 (ip), vehicle: gum acacia 104 % of control | dose: 400.0 mg/kg/injection, schedule: Q04DX003 (ip), vehicle: gum acacia 101 % of control

NC(CC(=O)O)C(=O)O.[Cu+2] (stereo not given)
inactive: dose: 5.0 mg/kg/injection, schedule: Q01DX009 (ip), vehicle: Klucel (hydroxypropylcellulose) (HPC) 106 % of control | dose: 10.0 mg/kg/injection, schedule: Q01DX009 (ip), vehicle: Klucel (hydroxypropylcellulose) (HPC) 104 % of control | dose: 20.0 mg/kg/injection, schedule: Q01DX009 (ip), vehicle: Klucel (hydroxypropylcellulose) (HPC) 108 % of control | dose: 20.0 mg/kg/injection, schedule: Q04DX003 (ip), vehicle: Klucel (hydroxypropylcellulose) (HPC) 100 % of control

CN(C)CCCNCC(=O)N1CCN(C(=O)CNCCCN(C)C)CC1
inactive: [1] 106 % of control | [2] 106 % of control

CC(C)C1=CC23CCC4C(C)(C(=O)O)CCCC4(C)C2CC1C1C(=O)c2ccccc2C(=O)C13 (stereo not given)
inactive: [6] 90 % of control | [8] 95 % of control | [9] 91 % of control

CCCCCCCCCCCCC1CC2CCCCC2C2CCCCC12 (stereo not given)
inactive: dose: 100.0 mg/kg/injection, schedule: Q01DX001 (ip), vehicle: saline with Tween-80 95 % of control | dose: 200.0 mg/kg/injection, schedule: Q01DX001 (ip), vehicle: saline with Tween-80 97 % of control | dose: 400.0 mg/kg/injection, schedule: Q01DX001 (ip), vehicle: saline with Tween-80 89 % of control

CCOC(=O)C1NC(=O)N(c2ccccc2)C1=O (stereo not given)
inactive: [7] 103 % of control | [10] 108 % of control | [11] 104 % of control

O=C1CC2(CC3(Cl)C(Cl)=C(Cl)C2(Cl)C3(Cl)Cl)C(=O)O1 (stereo not given)
inactive: [1] 100 % of control | [2] 102 % of control | [3] 102 % of control | [4] 102 % of control

c1ccc2c3c(ccc2c1)-c1oncc1CC3
inactive: [6] 95 % of control | [8] 103 % of control | [9] 93 % of control

CCN(CC)Cc1ccccn1
inactive: dose: 25.0 mg/kg/injection, schedule: Q04DX003 (ip), vehicle: saline 102 % of control | [5] 107 % of control | [7] 96 % of control

[O]=[V]([OH])([OH])[OH]
inactive: dose: 2.0 mg/kg/injection, schedule: Q01DX015 (ip), vehicle: saline 101 % of control | dose: 4.0 mg/kg/injection, schedule: Q01DX015 (ip), vehicle: saline 103 % of control | dose: 8.0 mg/kg/injection, schedule: Q01DX015 (ip), vehicle: saline 103 % of control | dose: 12.5 mg/kg/injection, schedule: Q01DX001 (ip), vehicle: saline 113 % of control | dose: 16.0 mg/kg/injection, schedule: Q01DX015 (ip), vehicle: saline 108 % of control | dose: 25.0 mg/kg/injection, schedule: Q01DX001 (ip), vehicle: saline 96 % of control | dose: 32.0 mg/kg/injection, schedule: Q01DX015 (ip), vehicle: saline 103 % of control | dose: 50.0 mg/kg/injection, schedule: Q01DX001 (ip), vehicle: saline 98 % of control | dose: 64.0 mg/kg/injection, schedule: Q01DX015 (ip), vehicle: saline 88 % of control

CCOC(=O)C(C(=O)OCC)c1nc(=O)[nH]c(=O)[nH]1
inactive: dose: 100.0 mg/kg/injection, schedule: Q01DX Z (ip), vehicle: methylcellulose (MC) 97 % of control

Cc1cc(C)c(NC(=S)NC(=O)c2ccccc2)cc1C
inactive: dose: 100.0 mg/kg/injection, schedule: Q04DX002 (ip), vehicle: gum acacia 88 % of control | dose: 200.0 mg/kg/injection, schedule: Q04DX002 (ip), vehicle: gum acacia 100 % of control | dose: 400.0 mg/kg/injection, schedule: Q04DX002 (ip), vehicle: gum acacia 96 % of control

O=C(Nc1ccc(C(c2ccccc2)(c2ccccc2)c2ccccc2)cc1)C(Cl)Cl
inactive: dose: 100.0 mg/kg/injection, schedule: Q01DX009 (ip), vehicle: Klucel (hydroxypropylcellulose) (HPC) 91 % of control | dose: 100.0 mg/kg/injection, schedule: Q04DX003 (ip), vehicle: Klucel (hydroxypropylcellulose) (HPC) 96 % of control | dose: 200.0 mg/kg/injection, schedule: Q01DX009 (ip), vehicle: Klucel (hydroxypropylcellulose) (HPC) 97 % of control | dose: 200.0 mg/kg/injection, schedule: Q04DX003 (ip), vehicle: Klucel (hydroxypropylcellulose) (HPC) 95 % of control | dose: 400.0 mg/kg/injection, schedule: Q01DX009 (ip), vehicle: Klucel (hydroxypropylcellulose) (HPC) 97 % of control | dose: 400.0 mg/kg/injection, schedule: Q04DX003 (ip), vehicle: Klucel (hydroxypropylcellulose) (HPC) 94 % of control

[O-][N+]1=CCCC1
inactive: dose: 100.0 mg/kg/injection, schedule: Q01DX009 (ip), vehicle: saline 89 % of control | [7] 104 % of control | dose: 200.0 mg/kg/injection, schedule: Q01DX009 (ip), vehicle: saline 91 % of control | [10] 107 % of control | dose: 400.0 mg/kg/injection, schedule: Q01DX009 (ip), vehicle: saline 92 % of control | [11] 105 % of control

N#Cc1nc2c(nc1C#N)CCCC2
inactive: dose: 6.25 mg/kg/injection, schedule: Q04DX003 (ip), vehicle: Klucel (hydroxypropylcellulose) (HPC) 98 % of control | dose: 12.5 mg/kg/injection, schedule: Q04DX003 (ip), vehicle: Klucel (hydroxypropylcellulose) (HPC) 95 % of control | dose: 25.0 mg/kg/injection, schedule: Q01DX001 (ip), vehicle: Klucel (hydroxypropylcellulose) (HPC) 96 % of control | dose: 25.0 mg/kg/injection, schedule: Q04DX003 (ip), vehicle: Klucel (hydroxypropylcellulose) (HPC) 97 % of control and 102 % of control | dose: 50.0 mg/kg/injection, schedule: Q01DX001 (ip), vehicle: Klucel (hydroxypropylcellulose) (HPC) 105 % of control | dose: 100.0 mg/kg/injection, schedule: Q01DX001 (ip), vehicle: Klucel (hydroxypropylcellulose) (HPC) 104 % of control
